{"source": "patent US20110237594A1", "about": "“FUNGICIDE HERETOCYCLYL-TRIAZINYL-AMINO DERIVATIVES” (priority 2008, published 2011)", "data": [{"system": "Botrytis cinerea", "assay": "In vivo test on Botrytis cinerea (grey mould)", "details": "gherkin plants, sprayed 24 hours before contamination, dose 500 ppm, grading 5/7 days after contamination", "procedure": "Plants, used as controls, are treated with an aqueous solution not containing the active material. After 24 hours, the plants are contaminated by depositing drops of an aqueous suspension of Botrytis cinerea spores (150,000 spores per ml) on upper surface of the leaves. The spores are collected from a 15-day-old culture and are suspended in a nutrient solution composed of: • 20 g/L of gelatine; • 50 g/L of D-fructose; • 2 g/L of NH4NO3; • 1 g/L of KH2PO4. The contaminated cucumber plants are settled for 5/7 days in a climatic room at 15-11° C. […] Grading is carried out 5/7 days after the contamination, in comparison with the control plants. Under these conditions, good (at least 70%) or total protection is observed at a dose of 500 ppm with the following compound: A14", "values": [{"smiles": "CCC(C)Nc1cc(-c2ncnc(Nc3ccc(OC)nc3)n2)ccn1", "note": "(centres unmarked) [Compound A14]", "protection (good, at least 70%, or total)": "at least 70%"}]}, {"system": "Pyrenophora teres", "assay": "In vivo test on Pyrenophora teres (barley net blotch)", "details": "barley plants, sprayed 24 hours before contamination, dose 500 ppm, grading 12 days after contamination", "procedure": "Barley plants (Express variety), sown on a 50/50 peat soil-pozzolana substrate in starter cups and grown at 12° C., are treated at the 1-leaf stage (10 cm tall) by spraying with the active ingredient prepared as described above. Plants, used as controls, are treated with an aqueous solution not containing the active material. After 24 hours, the plants are contaminated by spraying them with an aqueous suspension of Pyrenophora teres spores (12,000 spores per ml). The spores are collected from a 12-day-old culture. […] Grading is carried out 12 days after the contamination, in comparison with the control plants. Under these conditions, good (at least 70%) is observed at a dose of 500 ppm with the following compound: A14", "values": [{"smiles": "CCC(C)Nc1cc(-c2ncnc(Nc3ccc(OC)nc3)n2)ccn1", "note": "(centres unmarked) [Compound A14]", "protection (good, at least 70%)": "at least 70%"}]}, {"system": "Pyricularia oryzae", "assay": "not given", "type": "in vivo", "details": "rice, protective, 250 ppm of active ingredient, evaluated 5 days after inoculation", "units": {"efficacy": "%"}, "values": [{"smiles": "CCC(C)Nc1cc(-c2ncnc(Nc3ccc(OC)nc3)n2)ccn1", "note": "(centres unmarked) [Compound A14]", "efficacy": "≥ 80"}]}, {"system": "Rhizoctonia solani", "assay": "Rhizoctonia test (rice) / protective", "type": "in vivo", "details": "250 ppm of active ingredient, evaluated 4 days after inoculation", "procedure": "To produce a suitable preparation of active compound, 1 part by weight of active compound is mixed with the stated amounts of solvent and emulsifier, and the concentrate is diluted with water to the desired concentration. To test for protective activity, young plants are sprayed with the preparation of active compound at the stated rate of application. One day after spraying, the plants are inoculated with a hypha of the causal agent of rice sheath blight (Rhizoctonia solani). The plants are then placed in an incubator at approximately 25° C. and a relative atmospheric humidity of approximately 100%.", "units": {"efficacy": "%"}, "values": [{"smiles": "CCC(C)Nc1cc(-c2ncnc(Nc3ccc(OC)nc3)n2)ccn1", "note": "(centres unmarked) [Compound A14]", "efficacy": "≥ 80"}]}, {"system": "Cochliobolus miyabeanus", "assay": "Cochliobolus test (rice) / protective", "type": "in vivo", "details": "250 ppm of active ingredient, evaluated 4 days after inoculation", "units": {"efficacy": "%"}, "values": [{"smiles": "CCC(C)Nc1cc(-c2ncnc(Nc3ccc(OC)nc3)n2)ccn1", "note": "(centres unmarked) [Compound A14]", "efficacy": "≥ 80"}]}, {"system": "not listed separately", "assay": "logP by HPLC on reversed phase columns (EEC directive 79/831 Annex V.A8)", "details": "[c] LC-MS at pH 7.8, 0.001 molar ammonium hydrogen carbonate in water, gradient 10% to 95% acetonitrile", "values": [{"smiles": "COCC(C)Nc1cc(-c2ncnc(Nc3ccc(OC)nc3)n2)ccn1", "note": "(centres unmarked) [Compound A1]", "Lop p": "2.25[c];"}, {"smiles": "COc1ccc(Nc2ncnc(-c3ccnc(NCC(C)C)c3)n2)cn1", "note": "[Compound A2, N-(6-methoxypyridin-3-yl)-4-{2-[(2-methylpropyl)amino]pyridin-4-yl}-1,3,5-triazin-2-amine]", "Lop p": "2.52[c]"}, {"smiles": "CCSCCNc1cc(-c2ncnc(Nc3ccc(OC)nc3)n2)ccn1", "note": "[Compound A4]", "Lop p": "2.78[c]"}, {"smiles": "COc1ccc(Nc2ncnc(-c3ccnc(NC(C)CN(C)C)c3)n2)cn1", "note": "(centres unmarked) [Compound A5]", "Lop p": "1.45[c]"}, {"smiles": "C=C(C)CNc1cc(-c2ncnc(Nc3ccc(OC)nc3)n2)ccn1", "note": "[Compound A6]", "Lop p": "2.57[c]"}, {"smiles": "COc1ccc(Nc2ncnc(-c3ccnc(NCCCSC)c3)n2)cn1", "note": "[Compound A7]", "Lop p": "2.62[c]"}, {"smiles": "COc1ccc(Nc2ncnc(-c3ccnc(NCC(C)O)c3)n2)cn1", "note": "(centres unmarked) [Compound A8]", "Lop p": "1.7[c]"}, {"smiles": "CCC(O)CNc1cc(-c2ncnc(Nc3ccc(OC)nc3)n2)ccn1", "note": "(centres unmarked) [Compound A9]", "Lop p": "1.97[c]"}, {"smiles": "COc1ccc(Nc2ncnc(-c3ccnc(NCCOC(C)C)c3)n2)cn1", "note": "[Compound A10]", "Lop p": "2.53[c]"}, {"smiles": "COc1ccc(Nc2ncnc(-c3ccnc(NCCC(C)C)c3)n2)cn1", "note": "[Compound A11]", "Lop p": "3.27[c]"}, {"smiles": "COc1ccc(Nc2ncnc(-c3ccnc(NCCSC)c3)n2)cn1", "note": "[Compound A12]", "Lop p": "2.44[c]"}, {"smiles": "COc1ccc(Nc2ncnc(-c3ccnc(NCC4CCCO4)c3)n2)cn1", "note": "(centres unmarked) [Compound A13]", "Lop p": "2.17[c]"}, {"smiles": "CCC(C)Nc1cc(-c2ncnc(Nc3ccc(OC)nc3)n2)ccn1", "note": "(centres unmarked) [Compound A14]", "Lop p": "2.47[c]"}]}, {"system": "not listed separately", "assay": "logP by HPLC on reversed phase columns (EEC directive 79/831 Annex V.A8)", "details": "unmarked values: LC-MS at pH 2.7, 0.1% formic acid in water / acetonitrile, gradient 10% to 95% acetonitrile", "values": [{"smiles": "COCC(C)Nc1cc(-c2ncnc(Nc3ccc(OC)nc3)n2)ccn1", "note": "(centres unmarked) [Compound A1]", "Lop p": 1.3}, {"smiles": "COCC(C)Nc1cc(-c2ncnc(Nc3ccsc3)n2)ccn1", "note": "(centres unmarked) [Compound A15]", "Lop p": 1.4}, {"smiles": "CC(C)CN(C)c1cc(-c2ncnc(Nc3ccsc3)n2)ccn1", "note": "[Compound A16]", "Lop p": 1.86}, {"smiles": "CC(C)C(C)Nc1cc(-c2ncnc(Nc3ccsc3)n2)ccn1", "note": "(centres unmarked) [Compound A17]", "Lop p": 1.79}, {"smiles": "COCCNc1cc(-c2ncnc(Nc3ccsc3)n2)ccn1", "note": "[Compound A18]", "Lop p": 1.28}, {"smiles": "CC(C)(C)OC(=O)Nc1cc(-c2ncnc(Nc3ccsc3)n2)ccn1", "note": "[Compound A19]", "Lop p": 3.39}, {"smiles": "Nc1cc(-c2ncnc(Nc3ccsc3)n2)ccn1", "note": "[Compound A20]", "Lop p": 0.98}, {"smiles": "CN(CC1CC1)c1cc(-c2ncnc(Nc3ccsc3)n2)ccn1", "note": "[Compound A21]", "Lop p": 1.75}, {"smiles": "CCC(C(C)OC)N(C)c1cc(-c2ncnc(Nc3ccsc3)n2)ccn1", "note": "(centres unmarked) [Compound A22]", "Lop p": 2.14}, {"smiles": "CN(CC(F)(F)F)c1cc(-c2ncnc(Nc3ccsc3)n2)ccn1", "note": "[Compound A23]", "Lop p": 3.42}, {"smiles": "CN(CC1CCCO1)c1cc(-c2ncnc(Nc3ccsc3)n2)ccn1", "note": "(centres unmarked) [Compound A24]", "Lop p": 1.59}, {"smiles": "COC1CCCN(c2cc(-c3ncnc(Nc4ccsc4)n3)ccn2)C1", "note": "(centres unmarked) [Compound A25]", "Lop p": 1.74}, {"smiles": "COCCN(C)c1cc(-c2ncnc(Nc3ccsc3)n2)ccn1", "note": "[Compound A26]", "Lop p": 1.45}, {"smiles": "C=CCN(C)c1cc(-c2ncnc(Nc3ccsc3)n2)ccn1", "note": "[Compound A27]", "Lop p": 1.48}, {"smiles": "CCCN(C)c1cc(-c2ncnc(Nc3ccsc3)n2)ccn1", "note": "[Compound A28]", "Lop p": 1.63}, {"smiles": "CCN(CC)c1cc(-c2ncnc(Nc3ccsc3)n2)ccn1", "note": "[Compound A29]", "Lop p": 1.57}, {"smiles": "CCC(COC)Nc1cc(-c2ncnc(Nc3ccsc3)n2)ccn1", "note": "(centres unmarked) [Compound A30]", "Lop p": 1.6}, {"smiles": "CCCC(C)Nc1cc(-c2ncnc(Nc3ccsc3)n2)ccn1", "note": "(centres unmarked) [Compound A31]", "Lop p": 1.84}, {"smiles": "CC(C)CCN(C)c1cc(-c2ncnc(Nc3ccsc3)n2)ccn1", "note": "[Compound A32]", "Lop p": 2.18}, {"smiles": "CC(C)=CCN(C)c1cc(-c2ncnc(Nc3ccsc3)n2)ccn1", "note": "[Compound A33]", "Lop p": 2.14}, {"smiles": "CN(c1cc(-c2ncnc(Nc3ccsc3)n2)ccn1)C1CCCC1", "note": "[Compound A34]", "Lop p": 1.93}, {"smiles": "CN(C)c1cc(-c2ncnc(Nc3ccsc3)n2)ccn1", "note": "[Compound A35]", "Lop p": 1.22}, {"smiles": "O=CNc1cc(-c2ncnc(Nc3ccsc3)n2)ccn1", "note": "[Compound A36]", "Lop p": 1.9}]}]}
